Measured values: US20060024239A1, “Persistent post-viral cough drug and treatment method” (priority 2004, published 2006)

System: persistent post-viral cough
Assay: Treatment of patients with persistent post-viral cough (case reports and the inventors' clinical experience)
Type: in vivo, human
Description: As opposed to what is found in the medical literature, in the usual patient that we have observed and treated for sub-acute or chronic cough after viral respiratory infection, evidence for post-nasal drip, sinusitis, asthma, or gastroesophageal reflux has been lacking. Physical examination of the nose, throat, sinuses, and chest has been unremarkable as have chest x-ray, and simple pulmonary function tests. Antihistamines and decongestants as might be used for post-nasal drip have proven disappointing and have rarely afforded relief of the persistent cough when tried. Antibiotic treatments likewise have been effective to alleviate cough only in rare instances. […] We have been surprised by the regularity with which this treatment has proven effective.
Because the respiratory tract is a continuous conduit, topical medications can be applied to the airways surface in aerosol form. The term “aerosol” as used herein is as conventionally defined to indicate either a liquid or solid particle suspended in gas. Many chemical entities in aerosol delivery devices, both liquid and solid, have been developed and marketed for treating respiratory disorders. These include aerosol medications for application to the nose or for inhalation through the mouth. We have utilized a variety of inhaled topical corticosteroid aerosols to treat persistent post-viral cough and have found them all to be generally effective. The following are two examples of aerosols and regimens that we have found effective: • Beclovent Inhalation Aerosol (beclomethasone diprroprionate, USP): two to three sprays t.i.d. for six days. • Pulmicort Turbuhaler® 200 mcg (budesonide powder): one spray t.i.d. for six days.
The inventors have improvised treatment for protracted post-viral cough in our patients by utilizing commercially available multi-dose corticosteroid aerosol inhalers that are not indicated for that purpose. These typically provide enough chemical agent for a 29-30 day period. They are neither labeled for short-term use or for treatment of post-viral cough. While we have not encountered medicinal side effects in our treated patients, a general principal of pharmacologic treatment is to avoid overuse of medication. The desirability to minimize treatment and minimize the use of corticosteroids in particular is well recognized. On occasion, the inventors have utilized smaller size inhaler samples with fewer dosing actuations that have been available through the courtesy of pharmaceutical representatives. Although less consistently available, the devices with lesser number of actuations are considered preferable to prevent inadvertent or purposeful overuse of medication. An aerosol device containing a corticosteroid agent for treatment of about two weeks or less is preferred, and about 7 days is most preferred. It is to be noted that, lacking labeling, no inhaled corticosteroid aerosol used experimentally by the inventors comprises a “drug” to treat the persistent post-viral cough patients as herein described.
The following case reports further exemplify the present invention: • 1. A person with no previous respiratory history had initial symptoms consisting of nasal congestion, rhinorrhea, post-nasal drip, and dry cough. All symptoms but cough resolved within two week and dry cough persisted for 28 days from onset.
We have likewise found prompt response to a short course treatment of inhaled corticosteroid in these individuals, for example: […]

Structure (SMILES)	subsequent resolution of cough (case 1: 2 sprays (40 mcg@) tid for six days, after one week)	recurrence of cough (case 1: 2 sprays (40 mcg@) tid for six days, no further medication required)	improvement of cough at one week (case 1: dry cough for 28 days, 2 sprays (40 mcg@) tid for six days, slight residual in AM)	recurrence of cough (case 2: 2 sprays (40 mcg@) tid for five days)	resolution of cough (case 2: cough for 25 days, 2 sprays (40 mcg@) tid for five days)	recurrence of cough (case 3: 2 sprays (40 mcg@) tid for five days)	resolution of cough (case 3: severe dry cough for 22 days, 2 sprays (40 mcg@) tid for five days)	recurrence of cough (case 4: 2 sprays (40 mcg@) tid for ten days)	resolution of cough (case 4: severe dry cough for 6 weeks, 2 sprays (40 mcg@) tid for ten days)	resolution of symptoms (case 2: five-day course, 500 mg per day, initial cold symptoms with productive cough)	improvement of cough (case 4: 500 mg per day for five days)
C[C@H]1C[C@H]2[C@@H]3CCC4=CC(=O)C=C[C@]4(C)[C@@]3(Cl)[C@@H](O)C[C@]2(C)[C@@]1(O)C(=O)CO [Beclomethasone MDI, Beclomethasone]	complete resolution	did not reoccur	significant improvement of cough	no recurrence of cough	complete resolution of cough	no recurrence	complete resolution of cough	did not reoccur	complete resolution of cough	–	–
CC[C@H]1OC(=O)[C@H](C)[C@@H](O[C@H]2C[C@@](C)(OC)[C@@H](O)[C@H](C)O2)[C@H](C)[C@@H](O[C@@H]2O[C@H](C)C[C@H](N(C)C)[C@H]2O)[C@](C)(O)C[C@@H](C)CN(C)[C@H](C)[C@@H](O)[C@]1(C)O [azithromycin]	–	–	–	–	–	–	–	–	–	all symptoms resolved with the exception of a non-productive “tickling” cough	without improvement of the cough
